In the supplement of paper PMC10307832:

Experiments:
Assay in all cases: relative viability (nuclei count vs DMSO), 5 days (fraction); higher = more cells survive
[1] = compound: CC(O)(CS(=O)(=O)c1ccc(F)cc1)C(=O)Nc1ccc(C#N)c(C(F)(F)F)c1 [Bicalutamide] + N=C(N)NC(=N)NCCc1ccccc1 [Phenformin] (partner 250 µM)
Method in brief: (§1)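 Cells from lung cancer lines were seeded into 1536-well plates and, one day later, dosed by pin tool. Treatments were either a single drug or a fixed dose of an anchor drug with five library-drug doses (not always all listed) in √10 steps. After 5 days, nuclei were stained in a one-step fixation (final 0.05% Triton X-100, 1% formaldehyde, 1 ug/ml Hoechst) and counted on 4× images, and relative viability is the treated-to-vehicle nuclei ratio, as the median of duplicate plates.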

[2] = compound: C(C(=O)C(=O)O)Br [Bromopyruvate] + CC(=O)Nc1cccc(-n2c(=O)n(C3CC3)c(=O)c3c(Nc4ccc(I)cc4F)n(C)c(=O)c(C)c32)c1 [Trametinib] (partner 0.02 µM)
Method in brief: as §1

Bromopyruvate + AZD7762 = compound: C(C(=O)C(=O)O)Br [Bromopyruvate] + NC(=O)Nc1cc(-c2cccc(F)c2)sc1C(=O)N[C@H]1CCCNC1 [AZD7762] (partner 0.2 µM)
Method in brief: as §1

[3] = compound: C(C(=O)C(=O)O)Br [Bromopyruvate] + CS(=O)(=O)N1CCN(Cc2cc3nc(-c4cccc5[nH]ncc45)nc(N4CCOCC4)c3s2)CC1 [Pictilisib] (partner 1 µM)
Method in brief: as §1

Cell Line	relative viability ([1]; first compound 0.08 µM)	relative viability ([1]; first compound 0.253 µM)	relative viability ([1]; first compound 0.8 µM)	relative viability ([1]; first compound 2.53 µM)	relative viability ([2]; first compound 1 µM)	relative viability ([2]; first compound 3.162 µM)	relative viability ([2]; first compound 10 µM)	relative viability ([2]; first compound 31.62 µM)	relative viability ([2]; first compound 100 µM)	relative viability (Bromopyruvate + AZD7762; first compound 1 µM)	relative viability (Bromopyruvate + AZD7762; first compound 3.162 µM)	relative viability (Bromopyruvate + AZD7762; first compound 10 µM)	relative viability (Bromopyruvate + AZD7762; first compound 31.62 µM)	relative viability (Bromopyruvate + AZD7762; first compound 100 µM)	relative viability ([3]; first compound 1 µM)	relative viability ([3]; first compound 3.162 µM)	relative viability ([3]; first compound 10 µM)	relative viability ([3]; first compound 31.62 µM)	relative viability ([3]; first compound 100 µM)
NCI-H1975	0.4	0.409	0.442	0.37	0.361	0.334	0.329	0.345	0.365	0.825	0.691	0.721	0.785	0.703	0.301	0.318	0.323	0.326	0.3
CAL-12T	0.609	0.505	0.626	0.493	0.302	0.285	0.393	0.347	0.307	0.633	0.588	0.611	0.568	0.637	0.431	0.394	0.534	0.309	0.569
NCI-H1623		0.594	0.587	0.55															
HCC-44	0.302	0.177	0.292	0.184	1.08	1.02	1.04	1.11	1	0.959	1.01	0.963	1.02	1.04	0.697	0.625	0.693	0.66	0.671
EKVX	0.246	0.223	0.233	0.24	0.368	0.381	0.334	0.448	0.378	0.818	0.791	0.662	0.61	0.693	0.412	0.437	0.444	0.458	0.472
NCI-H1651	0.36	0.377	0.411	0.345	0.817	0.866	0.891	0.825	0.836	0.441	0.491	0.474	0.403	0.4	0.516	0.539	0.69	0.594	0.549
NCI-H1944	0.216	0.181	0.238	0.217	0.428	0.376	0.409	0.435	0.398	0.579	0.521	0.576	0.514	0.54	0.353	0.354	0.352	0.315	0.365
NCI-H1703										0.119	0.124	0.138	0.13	0.0978	0.238	0.226	0.256	0.271	0.269
Calu-6															0.898	0.958	0.966	0.743	0.829
EBC-1															0.374	0.467	0.412	0.42	0.415
A-427	0.382	0.283	0.367	0.224	0.73	0.766	0.838	0.767	0.771	0.782	0.747	0.883	0.66	0.755	0.678	0.809	0.483	0.746	0.718
NCI-H2405	0.436	0.358	0.468	0.415	0.735	0.739	0.764		0.684	0.998	0.888	0.887		0.254	0.441	0.524	0.431	0.349	0.517
NCI-H1355	0.456	0.44	0.481	0.492	0.415	0.467	0.335	0.452	0.445	0.744	0.882	0.664	0.737	0.648	0.43	0.438	0.466	0.577	0.422
NCI-H358	0.336	0.344	0.401	0.35	0.145	0.132	0.139	0.128	0.133	0.656	0.578	0.609	0.505	0.555	0.342	0.397	0.343	0.326	0.328
RERF-LC-KJ	0.406	0.396	0.431	0.336	0.657	0.984	0.921	0.85	0.909	0.97	1.04	1.29	0.978	0.889	0.537	0.563	0.644	0.617	0.495
NCI-H23	0.851	0.694	0.883	0.765	0.371	0.375	0.346	0.354	0.336	0.27	0.22	0.249	0.206	0.251	0.448	0.535	0.433	0.502	0.409
HOP-62	0.681	0.651	0.769	0.698	0.405	0.343	0.372	0.408	0.485	0.498	0.573	0.473	0.444	0.665	0.71	0.889		0.836	0.988
HARA	0.516	0.388	0.595	0.481	0.709	0.814		0.633	1	1.98	0.393		0.298	0.289	0.276	0.47	0.332	0.485	0.449
PC-14	0.701	0.541	0.96	0.527	0.8	0.717	0.953	0.718	0.753	0.483	0.401	0.407	0.412	0.384	0.714	0.692	0.898	0.808	0.611
NCI-H1755	0.651	0.595	0.596	0.551	0.827	0.831	0.722	0.768	0.796	0.432	0.476	0.381	0.51	0.473	0.484	0.512	0.448	0.467	0.456
